The compounds below were run against T1, human α7 receptor (Homo sapiens, UniProt P36544) (assay: α7 NNR flux assay (FDSS Ca assay, Calcium-4 dye, positive allosteric modulation of acetylcholine response)). Settings: human α7 receptor stably expressed in rat GH4C1 cell line; acetylcholine 20 μM (~EC100); % modulation relative to reference PNU-120596 set to 100%.
T1 construct: host or cells: rat GH4C1 cell line
T1 sequence (P36544 23-502): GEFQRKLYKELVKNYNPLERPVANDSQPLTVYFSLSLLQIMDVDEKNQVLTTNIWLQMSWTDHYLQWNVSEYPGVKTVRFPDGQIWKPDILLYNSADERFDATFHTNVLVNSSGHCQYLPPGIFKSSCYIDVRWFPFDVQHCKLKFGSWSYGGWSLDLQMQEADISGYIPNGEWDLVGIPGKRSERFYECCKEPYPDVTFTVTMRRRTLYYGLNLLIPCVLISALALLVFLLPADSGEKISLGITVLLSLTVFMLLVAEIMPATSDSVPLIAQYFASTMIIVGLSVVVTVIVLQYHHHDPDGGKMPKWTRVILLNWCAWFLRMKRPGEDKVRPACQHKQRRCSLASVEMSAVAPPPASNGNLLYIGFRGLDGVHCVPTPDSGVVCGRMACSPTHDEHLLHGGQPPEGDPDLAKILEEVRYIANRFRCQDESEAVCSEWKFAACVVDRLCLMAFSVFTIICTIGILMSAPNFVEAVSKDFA
Assay type: cell-based
Experimental: The nicotinic acetylcholine receptor α7 is a calcium-permeable ion channel, whose activity can be measured by over expression in mammalian cells or oocytes in this version of the assay, the human α7 receptor is stably expressed in the rat GH4C1 cell line. The assay was used to identify positive allosteric modulators (PAMs) of the α7 receptor. Activation of the channel was measured by loading cells with the calcium-sensitive fluorescent dye Calcium-4 (Assay kit from Molecular Devices), and then measuring real-time changes in fluorescence upon treatment with test compounds.
The cell line ChanClone GH4C1-nAChRalpha7 from Genionics was seeded from frozen stock in 384-well plates in culture media 2-3 days before experiment to form an approximately 80% confluent layer on the day of experiment.
Two or three days before the experiment the cells were seeded in 384 well plates from Greiner bio-one (781946, CELLCOAT, Poly-D-Lysine, black, μClear).
The cells were seeded in 384 well plates with 30 μL/well (30000 cells/well) while stirring the cell suspension or otherwise preventing the cells from precipitating.
The loading buffer was 5% v/v Calcium-4 Kit and 2.5 mM Probenecid in assay buffer.
Culture media were removed from the cell plates and 20 μL loading buffer was added in each well. The cell plates were placed in trays and incubated 90 minutes in the incubator (37° C.). Thereafter the plates were incubated 30 minutes at room temperature, still protected from light.
The assay buffer was HBSS with 20 mM HEPES, pH 7.4 and 3 mM CaCl2.
200 nL 10 mM compound solution in DMSO was diluted in 50 μL assay buffer. The final test concentrations in the cell plates were 20-10-5-2.5-1:25-0.625-0.312-0.156-0.078-0.039 μM. Assay buffer and 3 μM PNU-120596 were used for control.
The agonist acetylcholine was added to a final concentration of 20 μM (˜EC100).
In the FDSS7000 the Ex480-Em540 was measured with 1 second intervals. The baseline was made of 5 frames before addition of test compounds, and 95 frames more were made before addition of acetylcholine. The measurement stopped 30 frames after the 2nd addition. Raw data for each well were collected as “the maximum fluorescence count” in the interval 100-131 seconds and as “the average fluorescence count” in the interval 96-100 seconds. The positive allosteric modulation in the 2nd addition was the enhancement of agonist response with test compound compared to agonist alone.
Results were calculated as % modulation of test compound compared to the reference PNU-120596 set to 100%.
`CCOc1ncc([C@H](C)NC(=O)[C@H]2C[C@@H]2c2ccccc2)cn1` [Compound 17, (1S,2S)-2-Phenyl-cyclopropanecarboxylic acid [(S)-1-(2-ethoxy-pyrimidin-5-yl)-ethyl]-amide] was tested, and the EC50 was 3.7 µM. `COC[C@H](NC(=O)[C@H]1C[C@@H]1c1ccccc1)c1ccc(O[C@H]2CCOC2)nc1` [Compound 48, (1S,2S)—N-[(1R)-2-methoxy-1-[6-[(3S)-tetrahydrofuran-3-yl]oxy-3-pyridyl]ethyl]-2-phenyl-cyclopropanecarboxamide] gave an EC50 of 1.7 µM. `C[C@H](NC(=O)[C@H]1C[C@@H]1c1ccccc1)c1ccc(C(F)(F)F)nc1` [Compound 6, (1S,2S)-2-Phenyl-cyclopropanecarboxylic acid [(S)-1-(6-trifluoromethyl-pyridin-3-yl)-ethyl]-amide] was tested, and the EC50 was 5.2 µM. For `Cc1ccc([C@H](C)NC(=O)[C@H]2C[C@@H]2c2ccccc2)cn1` [Compound 4, (1S,2S)-2-Phenyl-cyclopropanecarboxylic acid [(S)-1-(6-methyl-pyridin-3-yl)-ethyl]-amide], the EC50 was 8.1 µM. In the case of `CCc1ccc([C@H](C)NC(=O)[C@H]2C[C@@H]2c2ccccc2)cn1` [Compound 8, (1S,2S)-2-Phenyl-cyclopropanecarboxylic acid [(S)-1-(6-ethyl-pyridin-3-yl)-ethyl]-amide], the EC50 is reported as 3.7 µM. Compound `[2H]C([2H])([2H])C([2H])([2H])Oc1ccc([C@H](CO)NC(=O)[C@H]2C[C@@H]2c2ccccc2)cn1` [Compound 38, (1S,2S)-2-Phenyl-cyclopropane carboxylic acid [(R)-1-(6-(1,1,2,2-d5)-ethoxy-pyridin-3-yl)-2-hydroxy-ethyl]-amide] has an EC50 of 0.97 µM. `O=C(N[C@@H](CO)c1ccc(O[C@@H]2CCOC2)nc1)[C@H]1C[C@@H]1c1ccccc1` [Compound 43, (1S,2S)-2-Phenyl-cyclopropanecarboxylic acid ((R)-2-hydroxy-1-{6-[(R)-(tetrahydro-furan-3-yl)oxy]-pyridin-3-yl}-ethyl)-amide] was tested, and the EC50 was 2.9 µM. With `CCOc1ccc([C@H](CO)NC(=O)[C@H]2C[C@@H]2c2ccc(F)cc2)cn1` [Compound 28, (1S,2S)-2-(4-Fluoro-phenyl)-cyclopropanecarboxylic acid [(R)-1-(6-ethoxy-pyridin-3-yl)-2-hydroxy-ethyl]-amide] the EC50 was 0.62 µM. For `CC(C)Oc1ccc([C@H](C)NC(=O)[C@H]2C[C@@H]2c2ccccc2)cn1` [Compound 1, (1S,2S)-2-Phenyl-cyclopropanecarboxylic acid [(S)-1-(6-isopropoxy-pyridin-3-yl)-ethyl]-amide], the EC50 was 0.67 µM. With `COc1ccc([C@H](CO)NC(=O)[C@H]2C[C@@H]2c2ccccc2)cn1` [Compound 24, (1S,2S)-2-Phenyl-cyclopropanecarboxylic acid [(R)-2-hydroxy-1-(6-methoxy-pyridin-3-yl)-ethyl]-amide] the EC50 was 5.2 µM. In the case of `[2H]C([2H])(C)Oc1ccc([C@H](CO)NC(=O)[C@H]2C[C@@H]2c2ccccc2)cn1` [Compound 36, (1S,2S)-2-Phenyl-cyclopropanecarboxylic acid [(R)-1-(6-(1,1-d2)-ethoxy-pyridin-3-yl)-2-hydroxy-ethyl]-amide], the EC50 is reported as 1.6 µM. `CCOc1ccc([C@H](CO)NC(=O)[C@H]2C[C@@H]2c2cccc(F)c2)cn1` [Compound 27, (1S,2S)-2-(3-Fluoro-phenyl)-cyclopropanecarboxylic acid [(R)-1-(6-ethoxy-pyridin-3-yl)-2-hydroxy-ethyl]-amide] showed an EC50 of 0.39 µM. Work on `COC[C@H](NC(=O)[C@H]1C[C@@H]1c1ccccc1)c1ccc(OC2CCOCC2)nc1` [Compound 49, (1S,2S)-2-Phenyl-cyclopropanecarboxylic acid {(R)-2-methoxy-1-[6-(tetrahydro-pyran-4-yloxy)-pyridin-3-yl]-ethyl}-amide] yielded an EC50 of 1.2 µM. `[2H]C([2H])(C)Oc1ccc([C@H](CO)NC(=O)[C@H]2C[C@@H]2c2cccc(F)c2)cn1` [Compound 32, (1S,2S)-2-(3-Fluoro-phenyl)-cyclopropanecarboxylic acid [(R)-1-(6-(1,1-d2)-ethoxy-pyridin-3-yl)-2-hydroxy-ethyl]-amide] gave an EC50 of 0.53 µM. `O=C(N[C@@H](CO)c1ccc(O[C@H]2CCOC2)nc1)[C@H]1C[C@@H]1c1ccccc1` [Compound 44, (1S,2S)—N-[(1R)-2-hydroxy-1-[6-[(3S)-tetrahydrofuran-3-yl]oxy-3-pyridyl]ethyl]-2-phenyl-cyclopropanecarboxamide] was tested, and the EC50 was 4.6 µM. With `O=C(N[C@@H](CO)c1ccc(OC2CCC2)nc1)[C@H]1C[C@@H]1c1cccc(F)c1` [Compound 41, (1S,2S)-2-(3-Fluoro-phenyl)-cyclopropanecarboxylic acid [(R)-1-(6-cyclobutoxy-pyridin-3-yl)-2-hydroxy-ethyl]-amide] the EC50 was 1.6 µM. In the case of `COCc1ccc([C@H](C)NC(=O)[C@H]2C[C@@H]2c2ccccc2)cn1` [Compound 9, (1S,2S)-2-Phenyl-cyclopropanecarboxylic acid [(S)-1-(6-methoxymethyl-pyridin-3-yl)-ethyl]-amide], the EC50 is reported as 6.2 µM. `[2H]C([2H])([2H])C([2H])([2H])Oc1ccc([C@H](CO)NC(=O)[C@H]2C[C@@H]2c2ccc(F)cc2)cn1` [Compound 34, (1S,2S)-2-(4-Fluoro-phenyl)-cyclopropanecarboxylic acid [(R)-1-(6-(1,1,2,2,2-d5)-ethoxy-pyridin-3-yl)-2-hydroxy-ethyl]-amide] showed an EC50 of 0.7 µM. Compound `[2H]C([2H])(C)Oc1ccc([C@H](CO)NC(=O)[C@H]2C[C@@H]2c2ccc(F)cc2)cn1` [Compound 37, (1S,2S)-2-(4-Fluoro-phenyl)-cyclopropanecarboxylic acid [(R)-1-(6-(1,1-d2)-ethoxy-pyridin-3-yl)-2-hydroxy-ethyl]-amide] has an EC50 of 0.7 µM. `C[C@H](NC(=O)[C@H]1C[C@@H]1c1ccccc1)c1ccc(O[C@H]2CCOC2)nc1` [Compound 13, (1S,2S)-2-Phenyl-cyclopropanecarboxylic acid [(S)-1-{6-[(S)-(tetrahydro-furan-3-yl)oxy]-pyridin-3-yl]-ethyl}-amide] was tested, and the EC50 was 1.6 µM. With `CCCOc1ccc([C@H](CO)NC(=O)[C@H]2C[C@@H]2c2cccc(F)c2)cn1` [Compound 29, (1S,2S)-2-(3-Fluoro-phenyl)-cyclopropanecarboxylic acid [(R)-2-hydroxy-1-(6-propoxy-pyridin-3-yl)-ethyl]-amide] the EC50 was 0.86 µM. For `Cc1ccc([C@H](CO)NC(=O)[C@H]2C[C@@H]2c2ccccc2)cn1` [Compound 25, (1S,2S)-2-Phenyl-cyclopropanecarboxylic acid [(R)-2-hydroxy-1-(6-methyl-pyridin-3-yl)-ethyl]-amide], the EC50 was 7.3 µM. With `[2H]C([2H])([2H])COc1ccc([C@H](CO)NC(=O)[C@H]2C[C@@H]2c2cccc(F)c2)cn1` [Compound 39, (1S,2S)-2-(3-Fluoro-phenyl)-cyclopropanecarboxylic acid [(R)-1-(6-(2,2,2-d3)-ethoxy-pyridin-3-yl)-2-hydroxy-ethyl]-amide] the EC50 was 0.72 µM. Compound `CCOc1ccc([C@H](C)NC(=O)[C@H]2C[C@@H]2c2ccccc2)cn1` [Compound 7, (1S,2S)-2-Phenyl-cyclopropanecarboxylic acid [(S)-1-(6-ethoxy-pyridin-3-yl)-ethyl]-amide] has an EC50 of 0.96 µM. `COCCOc1ccc([C@H](C)NC(=O)[C@H]2C[C@@H]2c2ccccc2)cn1` [Compound 11, (1S,2S)-2-Phenyl-cyclopropanecarboxylic acid {(S)-1-[6-(2-methoxy-ethoxy)-pyridin-3-yl]-ethyl}-amide] was tested, and the EC50 was 3.8 µM. `CCOc1ccc([C@H](CO)NC(=O)[C@H]2C[C@@H]2c2ccccc2)cn1` [Compound 33, (1S,2S)-2-Phenyl-cyclopropanecarboxylic acid [(R)-1-(6-ethoxy-pyridin-3-yl)-2-hydroxy-ethyl]-amide] was tested, and the EC50 was 1 µM. In the case of `O=C(N[C@@H](CO)c1ccc(OC2CCC2)nc1)[C@H]1C[C@@H]1c1ccc(F)cc1` [Compound 42, (1S,2S)-2-(4-Fluoro-phenyl)-cyclopropanecarboxylic acid [(R)-1-(6-cyclobutoxy-pyridin-3-yl)-2-hydroxy-ethyl]-amide], the EC50 is reported as 0.79 µM. Compound `N#Cc1ccc([C@H](CO)NC(=O)[C@H]2C[C@@H]2c2ccccc2)nc1` [Compound 23, (1S,2S)-2-Phenyl-cyclopropanecarboxylic acid [(R)-1-(5-cyano-pyridin-2-yl)-2-hydroxy-ethyl]-amide] has an EC50 of 7.6 µM. `O=C(N[C@@H](CO)c1ccc(OC2CCC2)nc1)[C@H]1C[C@@H]1c1ccccc1` [Compound 40, (1S,2S)-2-Phenyl-cyclopropanecarboxylic acid [(R)-1-(6-cyclobutoxy-pyridin-3-yl)-2-hydroxy-ethyl]-amide] was tested, and the EC50 was 0.89 µM.

Reference: patent publication US9889122B2, “Positive allosteric modulators of nicotinic acetylcholine receptor” (H. Lundbeck A/S, priority 2011, dated 2018)
